Reference: patent publication US20240342292A1, “Compounds for the Degradation of EGFR Kinase” (BeiGene Switzerland GmbH, priority 2021, published 2024)

Legend:
L858R/T790M/C797S EGFR = biological target: T1, L858R/T790M/C797S EGFR (Homo sapiens, UniProt P00533, C797S/L858R/T790M); experiment: EGFR degradation HTRF assay in H1975-clone #25 (LTC) cells; assay type: cell-based; details: 16h treatment; for DC50: H1975 # 25-LTC (L858R/T790M/C797S), HTRF; for Dmax: NCI-H1975, H1975 # 25-LTC (L858R/T790M/C797S), maximum percentage of degradation
T1 construct: expressed in transfected cells; host or cells: H1975 clone #25 (lentiviral over-expression, endogenous EGFR knocked out by sgRNA)
In short: (§1)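 Cells carrying only lentiviral mutant EGFR, since endogenous alleles were removed by CRISPR, received compounds on day 2 for 16 h. Final concentrations ran from 10 uM down in 5-fold steps over 8 doses. After lysis, EGFR levels were quantified by HTRF and DC50 derived by curve fitting.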

Del19/T790M/C797S EGFR = experiment: EGFR degradation HTRF assay in H1975-clone #28 (DTC) cells; assay type: cell-based; details: H1975 # 28 DTC (Del19/T790M/C797S), 16h treatment; for DC50: HTRF; for Dmax (%): maximum percentage of degradation
In short: as §1

T1 sequence (P00533 25-1210 T790M/C797S/L858R): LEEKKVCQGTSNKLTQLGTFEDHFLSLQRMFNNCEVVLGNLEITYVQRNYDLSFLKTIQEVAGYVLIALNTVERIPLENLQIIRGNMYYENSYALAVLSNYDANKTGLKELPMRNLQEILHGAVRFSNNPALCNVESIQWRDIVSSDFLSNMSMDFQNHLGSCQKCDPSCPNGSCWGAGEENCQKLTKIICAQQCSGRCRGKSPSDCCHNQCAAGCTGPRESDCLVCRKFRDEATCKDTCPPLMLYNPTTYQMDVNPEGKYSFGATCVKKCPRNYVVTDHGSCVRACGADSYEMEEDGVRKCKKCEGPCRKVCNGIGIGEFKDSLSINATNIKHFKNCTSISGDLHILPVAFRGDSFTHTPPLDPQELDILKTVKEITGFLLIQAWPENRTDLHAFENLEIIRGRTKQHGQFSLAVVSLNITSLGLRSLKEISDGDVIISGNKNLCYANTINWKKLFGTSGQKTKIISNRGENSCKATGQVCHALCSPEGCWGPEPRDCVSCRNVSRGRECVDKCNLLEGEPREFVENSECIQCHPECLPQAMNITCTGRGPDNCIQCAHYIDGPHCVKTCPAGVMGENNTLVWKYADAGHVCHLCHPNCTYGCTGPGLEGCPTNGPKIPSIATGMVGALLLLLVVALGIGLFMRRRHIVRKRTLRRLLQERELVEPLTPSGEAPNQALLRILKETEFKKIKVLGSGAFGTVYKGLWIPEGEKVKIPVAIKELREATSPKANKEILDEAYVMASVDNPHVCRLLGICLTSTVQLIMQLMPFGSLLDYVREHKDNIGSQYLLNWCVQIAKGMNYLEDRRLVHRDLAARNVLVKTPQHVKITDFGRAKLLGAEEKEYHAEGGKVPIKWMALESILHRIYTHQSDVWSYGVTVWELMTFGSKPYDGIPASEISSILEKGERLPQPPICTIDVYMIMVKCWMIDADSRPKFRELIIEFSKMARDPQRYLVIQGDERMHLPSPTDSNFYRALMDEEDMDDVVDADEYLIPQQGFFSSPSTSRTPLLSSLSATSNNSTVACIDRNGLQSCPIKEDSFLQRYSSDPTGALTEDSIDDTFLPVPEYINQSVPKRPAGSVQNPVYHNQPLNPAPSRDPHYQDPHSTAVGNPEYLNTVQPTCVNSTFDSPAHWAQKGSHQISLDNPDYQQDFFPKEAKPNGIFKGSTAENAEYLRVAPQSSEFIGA

DC50 (L858R/T790M/C797S EGFR)	Dmax (L858R/T790M/C797S EGFR)	DC50 (Del19/T790M/C797S EGFR)	SMILES	Dmax (%) (Del19/T790M/C797S EGFR)
0.487 nM	94%	0.534 nM	CO[C@@H]1CN(CCc2cc(F)c([C@H]3CCC(=O)NC3=O)c(F)c2)CC[C@@H]1NC(=O)c1ccc2c(c1)N1C[C@H](C)CCCOc3c(cnn3C)-c3cc(cc(C)n3)C(=O)/N=C/1N2 [Example 245, (R,E)-N-((3R,4S)-1-(4-((R)-2,6-dioxopiperidin-3-yl)-3,5-difluorophenethyl)-3-methoxypiperidin-4-yl)-1^1,2^5,7-trimethyl-3-oxo-5^2,5^3-dihydro-1^1H,5^1H-11-oxa-4-aza-5(2,1)-benzo[d]imidazola-2(2,4)-pyridina-1(4,5)-pyrazolacycloundecaphane-5^6-carboxamide]	81.9%
0.613 nM	93.8%	0.602 nM	Cc1cc2cc(n1)-c1cnn(C)c1OCCC[C@@H](C)CN1/C(=N/C2=O)Nc2ccc(C(=O)N[C@@H]3CCN(CCc4cc(F)c([C@H]5CCC(=O)NC5=O)c(F)c4)C[C@@H]3F)cc21 [Example 246, (R,E)-N-((3S,4R)-1-(4-((R)-2,6-dioxopiperidin-3-yl)-3,5-difluorophenethyl)-3-fluoropiperidin-4-yl)-1^1,2^6,7-trimethyl-3-oxo-5^2,5^3-dihydro-1^1H,5^1H-11-oxa-4-aza-5(2,1)-benzo[d]imidazola-2(2,4)-pyridina-1(4,5)-pyrazolacycloundecaphane-5^6-carboxamide]	85.73%
0.6 nM	92.5%	0.611 nM	Cc1cc2cc(n1)-c1cnn(C)c1OCCC[C@@H](C)CN1/C(=N/C2=O)Nc2ccc(C(=O)N(C)[C@H]3CCN(CCc4cc(F)c([C@H]5CCC(=O)NC5=O)c(F)c4)C[C@@H]3F)cc21 [Example 247, (R,E)-N-((3S,4S)-1-(4-((R)-2,6-dioxopiperidin-3-yl)-3,5-difluorophenethyl)-3-fluoropiperidin-4-yl)-N,1^1,2^6,7-tetramethyl-3-oxo-5^2,5^3-dihydro-1^1H,5^1H-11-oxa-4-aza-5(2,1)-benzo[d]imidazola-2(2,4)-pyridina-1(4,5)-pyrazolacycloundecaphane-5^6-carboxamide]	87.12%
1.06 nM	88.9%	0.59 nM	Cc1cc2cc(n1)-c1cnn(C)c1OCCC[C@@H](C)CN1/C(=N/C2=O)Nc2ccc(C(=O)N(C)[C@@H]3CCN(CCc4cc(F)c([C@H]5CCC(=O)NC5=O)c(F)c4)CC3(F)F)cc21 [Example 250, (R,E)-N—((R)-1-(4-((R)-2,6-dioxopiperidin-3-yl)-3,5-difluorophenethyl)-3,3-difluoropiperidin-4-yl)-N,1^1,2^6,7-tetramethyl-3-oxo-5^2,5^3-dihydro-1^1H,5^1H-11-oxa-4-aza-5(2,1)-benzo[d]imidazola-2(2,4)-pyridina-1(4,5)-pyrazolacycloundecaphane-5^6-carboxamide]	82.13%
0.888 nM	85.5%	0.611 nM	Cc1cc2cc(n1)-c1cnn(C)c1OCCC[C@@H](C)CN1/C(=N/C2=O)Nc2ccc(C(=O)N(C)[C@H]3CCN(CCc4cc(F)c([C@H]5CCC(=O)NC5=O)c(F)c4)CC3(F)F)cc21 [Example 251, (R,E)-N—((S)-1-(4-((R)-2,6-dioxopiperidin-3-yl)-3,5-difluorophenethyl)-3,3-difluoropiperidin-4-yl)-N,1^1,2^6,7-tetramethyl-3-oxo-5^2,5^3-dihydro-1^1H,5^1H-11-oxa-4-aza-5(2,1)-benzo[d]imidazola-2(2,4)-pyridina-1(4,5)-pyrazolacycloundecaphane-5^6-carboxamide]	80.86%
0.584 nM	92.4%	0.606 nM	CO[C@@H]1CN(CCc2cc(F)c([C@H]3CCC(=O)NC3=O)c(F)c2)CC[C@@H]1N(C)C(=O)c1ccc2c(c1)N1C[C@H](C)CCCOc3c(cnn3C)-c3cc(cc(C)n3)C(=O)/N=C/1N2 [Example 252, (R,E)-N—((3R,4S)-1-(4-((R)-2,6-dioxopiperidin-3-yl)-3,5-difluorophenethyl)-3-methoxypiperidin-4-yl)-N,1^1,2^6,7-tetramethyl-3-oxo-5^2,5^3-dihydro-1^1H,5^1H-11-oxa-4-aza-5(2,1)-benzo[d]imidazola-2(2,4) -pyridina-1(4,5)-pyrazolacycloundecaphane-5^4-carboxamide]	77.32%
0.289 nM	93.8%	0.59 nM	CO[C@@H]1CN(CCc2cc(F)c([C@H]3CCC(=O)NC3=O)c(F)c2)CC[C@H]1NC(=O)c1ccc2c(c1)N1C[C@H](C)CCCOc3c(cnn3C)-c3cc(cc(C)n3)C(=O)/N=C/1N2 [Example 253, (R,E)-N—((3R,4R)-1-(4-((R)-2,6-dioxopiperidin-3-yl)-3,5-difluorophenethyl)-3-methoxypiperidin-4-yl)-1^1,2^6,7-trimethyl-3-oxo-5^2,5^3-dihydro-1^1H,5^1H-11-oxa-4-aza-5(2,1)-benzo[d]imidazola-2(2,4)-pyridina-1(4,5)-pyrazolacycloundecaphane-5^6-carboxamide]	82.5%
0.91 nM	91.2%	0.624 nM	CO[C@@H]1CN(CCc2cc(F)c([C@H]3CCC(=O)NC3=O)c(F)c2)CC[C@H]1N(C)C(=O)c1ccc2c(c1)N1C[C@H](C)CCCOc3c(cnn3C)-c3cc(cc(C)n3)C(=O)/N=C/1N2 [Example 254, (R,E)-N—((3R,4R)-1-(4-((R)-2,6-dioxopiperidin-3-yl)-3,5-difluorophenethyl)-3-methoxypiperidin-4-yl)-N,1^1,2^6,7-tetramethyl-3-oxo-5^2,5^3-dihydro-1^1H,5^1H-11-oxa-4-aza-5(2,1)-benzo[d]imidazola-2(2,4) -pyridina-1(4,5)-pyrazolacycloundecaphane-5^6-carboxamide]	86.3%
0.599 nM	91.1%	0.566 nM	CO[C@H]1CN(CCc2cc(F)c([C@H]3CCC(=O)NC3=O)c(F)c2)CC[C@H]1N(C)C(=O)c1ccc2c(c1)N1C[C@H](C)CCCOc3c(cnn3C)-c3cc(cc(C)n3)C(=O)/N=C/1N2 [Example 255, (R,E)-N—((3S,4R)-1-(4-((R)-2,6-dioxopiperidin-3-yl)-3,5-difluorophenethyl)-3-methoxypiperidin-4-yl)-N,1^1,2^6,7-tetramethyl-3-oxo-5^2,5^3-dihydro-1^1H,5^1H-11-oxa-4-aza-5(2,1)-benzo[d]imidazola-2(2,4) -pyridina-1(4,5)-pyrazolacycloundecaphane-5^6-carboxamide]	81.82%
0.326 nM	88.1%	0.608 nM	Cc1cc2cc(n1)-c1cnn(C)c1OCCC[C@@H](C)CN1/C(=N/C2=O)Nc2ccc(C(=O)N(C)[C@H]3CCN(CCc4cc(F)c([C@H]5CCC(=O)NC5=O)c(F)c4)C[C@H]3C)cc21 [Example 256, (R,E)-N-((3R,4S)-1-(4-((R)-2,6-dioxopiperidin-3-yl)-3,5-difluorophenethyl)-3-methylpiperidin-4-yl) -N,1^1,2^6,7-tetramethyl-3-oxo-5^2,5^3-dihydro-1^1H,5^1H-11-oxa-4-aza-5(2,1)-benzo[d]imidazola-2(2,4)-pyridina-1(4,5)-pyrazolacycloundecaphane-5^6-carboxamide]	83.08%
0.512 nM	88%	0.57 nM	Cc1cc2cc(n1)-c1cnn(C)c1OCCC[C@@H](C)CN1/C(=N/C2=O)Nc2ccc(C(=O)N(C)[C@@H]3CCN(CCc4cc(F)c([C@H]5CCC(=O)NC5=O)c(F)c4)C[C@H]3C)cc21 [Example 257, (R,E)-N—((3R,4R)-1-(4-((R)-2,6-dioxopiperidin-3-yl)-3,5-difluorophenethyl)-3-methylpiperidin-4-yl)-N,1^1,2^6,7-tetramethyl-3-oxo-5^2,5^3-dihydro-1^1H,5^1H-11-oxa-4-aza-5(2,1)-benzo[d]imidazola-2(2,4)-pyridina-1(4,5)-pyrazolacycloundecaphane-5^6-carboxamide]	80.82%
0.381 nM	88.2%	0.577 nM	Cc1cc2cc(n1)-c1cnn(C)c1OCCC[C@@H](C)CN1/C(=N/C2=O)Nc2ccc(C(=O)N(C)[C@@H]3CCN(CCc4cc(F)c([C@H]5CCC(=O)NC5=O)c(F)c4)[C@@H](C)C3)cc21 [Example 258, (R,E)-N—((2S,4R)-1-(4-((R)-2,6-dioxopiperidin-3-yl)-3,5-difluorophenethyl)-2-methylpiperidin-4-yl) -N,1^1,2^6,7-tetramethyl-3-oxo-5^2,5^3-dihydro-1^1H,5^1H-11-oxa-4-aza-5(2,1)-benzo[d]imidazola-2(2,4)-pyridina-1(4,5)-pyrazolacycloundecaphane-5^6-carboxamide]	81.96%
0.841 nM	89.2%	0.725 nM	Cc1cc2cc(n1)-c1cnn(C)c1OCCC[C@@H](C)CN1/C(=N/C2=O)Nc2ccc(C(=O)N(C)[C@H]3CCN(CCc4cc(F)c([C@H]5CCC(=O)NC5=O)c(F)c4)[C@H](C)C3)cc21 [Example 259, (R,E)-N—((2R,4S)-1-(4-((R)-2,6-dioxopiperidin-3-yl)-3,5-difluorophenethyl)-2-methylpiperidin-4-yl)-N,1^1,2^6,7-tetramethyl-3-oxo-5^2,5^3-dihydro-1^1H,5^1H-11-oxa-4-aza-5(2,1)-benzo[d]imidazola-2(2,4)-pyridina-1(4,5)-pyrazolacycloundecaphane-5^6-carboxamide]	83.21%
